How the values were obtained:
[1] = test system: Rat brain microvascular endothelial cells (RBMECs); assay: Endothelial cell uptake of GLP-1-FAM; assay type: cell-based
Experimental: Rat brain microvascular endothelial cells (RBMECs; Cell Applications, San Diego, CA, United States) were cultured on a cover slip in rat brain endothelial cell growth medium. After reaching confluency, cells were pre-treated with vehicle (PSS buffer), exendin 9-39 (10 nM) or H89 (Sigma-Aldrich, St. Louis, MO, United States) (10 μM) for 30 min or forskolin (Sigma-Aldrich, St. Louis, MO, United States) (10 μM) for 5 min. Cells were then incubated with GLP-1-FAM at either 10, 100 or 1,000 pM for 3 min at 37°C. DAPI was used to stain the nucleus. After fixation and washing three times with cold TBST (5 min each time), cell images were captured using confocal microscope and fluorescence intensity measured using ImageJ software^1. FAM signal from surface binding of FAM was examined by incubating cells with GLP-1-FAM at 4 or 37°C for 3 min, or free FAM (10, 100, and 1,000 pM) at 37°C for 3 min.
FIGURE 5 GLP-1 uptake by RBMECs is GLP-1 receptor and PKA dependent. RBMECs were pretreated with vehicle (PSS buffer, A,E,I), Exendin 9-39 (10 nM, B,F,J) or H89 (10 μM, C,G,K) for 30 min. Cells were then incubated with GLP-1-FAM at 10, 100 pM or 1 nM for 3 min. DAPI was used to stain the nucleus. Images were captured using confocal microscope. Fluorescence density was analyzed using ImageJ. (D,H,L) Quantitative analysis (n = 3, *p < 0.01, vs. vehicle, Student’s t test). GLP-1R – GLP-1 receptor.
FIGURE 6 cAMP agonist increases GLP-1 uptake by RBMECs. (A) RBMECs were incubated with GLP-1-FAM at 10 pM for 3 min with or without 10 μM forskolin. DAPI was used to stain the nucleus. Images was captured using confocal microscope. Fluorescence density was analyzed using ImageJ. (B) quantitative analysis of the images (n = 6, *p < 0.05, vs. vehicle, Student’s t test).

GLP-1 receptor = target: T1, GLP-1 receptor (Rattus norvegicus, UniProt P32301); assay: Effect of GLP-1 receptor antagonist infusion on brain uptake of labeled GLP-1 or exendin-4; assay type: in vivo; conditions: exendin-(9-39) 30 nmol/kg/min for 20 min
T1 construct: from tissue; host or cells: live rat; brain regions (cerebellum, cortex, hippocampus, hypothalamus, brain stem) and brain microvasculature
T1 sequence (P32301 22-463): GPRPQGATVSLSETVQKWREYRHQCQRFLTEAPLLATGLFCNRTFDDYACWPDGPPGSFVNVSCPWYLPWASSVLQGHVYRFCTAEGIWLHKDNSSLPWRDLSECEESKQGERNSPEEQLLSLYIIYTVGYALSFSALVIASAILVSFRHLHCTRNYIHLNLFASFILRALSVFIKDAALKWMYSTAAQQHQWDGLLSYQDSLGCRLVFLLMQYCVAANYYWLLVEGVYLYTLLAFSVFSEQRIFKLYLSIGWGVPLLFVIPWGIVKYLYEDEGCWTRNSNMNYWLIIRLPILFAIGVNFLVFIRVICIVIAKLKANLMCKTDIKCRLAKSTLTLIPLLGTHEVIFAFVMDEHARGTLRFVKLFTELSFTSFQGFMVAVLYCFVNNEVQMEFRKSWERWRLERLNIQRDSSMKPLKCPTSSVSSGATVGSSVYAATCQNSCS
Experimental: Rats received a systemic infusion of either saline or exendin-(9-39) (GLP-1 receptor antagonist, 30 nmol/kg/min, Abcam, Cambridge, United Kingdom) via the jugular vein catheter for 20 min (Figure 1A). In the last 10 min, rats also received 30 pmol/kg/min of either GLP-1-FAM (AnaSpec, Fremont, CA, United States) or exendin-4-FAM (AnaSpec, Fremont, CA, United States) together with Dextran-TRITC (Sigma-Aldrich, St. Louis, MO, United States) (70 kD, vascular space marker, 30 pmol/kg/min). […] After collecting plasma samples, rats were sacrificed via anesthetic overdose and various brain regions (cerebellum, cortex, hippocampus, hypothalamus, and brain stem) collected, homogenized and lysed in lysis buffer. Fluorescence from TRITC and FAM were measured in both plasma and brain lysates. Protein concentrations were determined in the brain lysates. Brain uptake of GLP-1-FAM and exendin-4-FAM were calculated using the following formula:
Tissue fluorescence [FAM]/Tissue weight (μg)−TissueFluorescence [TRITC]/Weight(μg)/PlasmaFluorescence [TRITC]/200(μL)×Plasma Fluorescence [FAM]/200μL
FIGURE 1 GLP-1 and GLP-1 analog exendin-4 enter various brain regions via GLP-1 receptor-mediated process. (A) Protocol. […]

[2] = test system: RBMEC and astrocyte barrier; assay: Trans-endothelial GLP-1 transport (Transwell artificial BBB); assay type: in vitro ADME, rat; conditions: exendin-(9-39) 100 nM, 10 min pre-treatment and during transport; GLP-1-FAM 100 pM; n = 7, p < 0.01
Experimental: The trans-endothelial GLP-1 transport was examined using a Transwell system that mimics the BBB in that RBMECs were co-cultured with astrocytes as illustrated in Figure 7A and previously described ([Gaillard et al., 2001]). Briefly, astrocytes (Thermo Fisher Scientific, Waltham, MA, United States) were seeded on the bottom and RBMECs were then seeded onto the top of the Transwell insert (6.5 mm diameter, 1 μm pore size, polyester membrane; Corning, Corning, NY, United States). Trans-endothelial electrical resistance was monitored using a volt-ohmmeter (EVOM; WPI, Sarasota, FL, United States) and EndOhm chamber (EndOhm; WPI). When the trans-endothelial electrical resistance reached its peak, the insert with double cell layers was washed twice at 37°C with PBS buffer. […] The amount of GLP-1-FAM or inulin-FITC transported to the lower chamber was determined by measuring FAM and FITC fluorescence in the lower chamber at 5, 10, and 30 min. Inulin-FITC transport was used to correct for paracellular transport and the amount of trans-endothelial transport of GLP-1-FAM was calculated using the formula:
Transcellular transport (%)=Fluorescence [FAM]/Reference [FAM]×100−Fluorescence [FITC]/Reference [FITC]×100
Reference refers to fluorescence in the lower chamber at the specified time point when the Transwell inserts had no cells seeded. To determine if this trans-endothelial transport is dose-dependent, 10, 100, and 1,000 pM GLP-1-FAM or inulin-FITC (with DDP-4 inhibitor) was loaded into the upper chamber, the amount of GLP-1-FAM or inulin-FITC in the lower chamber was determined at 10 min, and trans-endothelial transport of GLP-1 was calculated.
FIGURE 7 Trans-endothelial transport of GLP-1 is a GLP-1 receptor-mediated process. […] GLP-1-FAM or inulin-FITC transport to the lower chamber was determined by measuring FAM and FITC fluorescence in the lower chamber. […]

[3] = pre-treatment 30 min with exendin 9-39 10 nM or H89 10 μM, GLP-1-FAM 10, 100 or 1,000 pM for 3 min at 37°C, n = 3, p < 0.01 vs vehicle

| effect on amount of GLP-1-FAM fluorescence in various brain regions (GLP-1 receptor; GLP-1-FAM 30 pmol/kg/min in last 10 min, n = 7, p < 0.05) | effect on exendin-4-FAM fluorescence in various brain regions (GLP-1 receptor; exendin-4-FAM 30 pmol/kg/min in last 10 min, n = 6, p < 0.05) | Compound | effect on RBMEC uptake of GLP-1-FAM [1, 3] | effect on RBMEC uptake of GLP-1-FAM ([1]; forskolin 10 μM, 5 min, GLP-1-FAM 10 pM for 3 min, n = 6, p < 0.05 vs vehicle) | effect on trans-endothelial transport of labeled GLP-1 [2] |
| --- | --- | --- | --- | --- | --- |
|  |  | O=S(=O)(NCCNC/C=C/c1ccc(Br)cc1)c1cccc2cnccc12 [H89] | blunted |  |  |
|  |  | C=C[C@@]1(C)CC(=O)[C@]2(O)[C@@]3(C)[C@@H](O)CCC(C)(C)[C@@H]3[C@H](O)[C@H](OC(C)=O)[C@@]2(C)O1 [forskolin] |  | significantly enhanced |  |
| markedly decreased | almost completely abolished | exendin-(9-39) | blunted |  | inhibited |

— PMC7274078, “Brain Endothelial Cells Regulate Glucagon-Like Peptide 1 Entry Into the Brain via a Receptor-Mediated Process” (Frontiers in Physiology, 2020)
